Several values for one entry are separate records, joined by “and”; a condition that tells them apart may be missing. Identical values can stand only once. Entries after “also recorded” stand apart in the source; their conditions may differ.

The test system of experiment [1] is Goldblatt 2 kidney, 1 clip model (renin-angiotensin mediated hypertension). The experiment is described as follows: Blood pressure in Goldblatt 2 kidney, 1 clip rats (vasoconstrictive hypertension model). It is filed as in vivo, rat. Conditions: Group III, two rats; about 1.53 micrograms per 100 grams body weight. How it is done:
(§1) In order to confirm the effectiveness of resibufogenin in treating volume expansion mediated hypertension, experiments were performed. Animal models of volume expansion mediated hypertension were created in the laboratory in accordance with guidance provided in “Down-regulation of Phosphorylation of Renal Proximal Brush Border Membrane Protein in DOCA-salt hypertensive rats”. H. Cai et al., J Am Soc Nephrol 5:S26, (1994). These models consisted of the administration of a potent mineralocorticoid desoxycorticosterone (DOCA) to rats whose drinking water had been replaced with 0.9% saline and which had one kidney removed (uninephrectomy) in order to induce volume expansion mediated hypertension. This group of animals is listed as Group I. Group II was the uninephrectomy control group (“time control”). Another group (Group III) utilized the Goldblatt 2 kidney, 1 clip model to induce vasoconstrictive (renin-angiotensin mediated) form of essential hypertension. All of the blood pressures were measured in mm Hg.
In each group, a baseline blood pressure was taken. This is shown in the first column. Subsequently, 10 days to 2 weeks prior to the introduction of resibufogenin, the blood pressure was measured. This appears in the second column. In the third column, the blood pressure was measured 10 days after administration of resibufogenin. […]

Experiment [2] in a line: Biological activity as antiangiogenesis agent.
Experiment [3] concerns DOCA-salt uninephrectomized rats (volume expansion mediated hypertension). The experiment is described as follows: Blood pressure in DOCA-salt uninephrectomized rats (volume expansion mediated hypertension model). It is filed as in vivo, rat. How it is done: as §1
In each group, a baseline blood pressure was taken. This is shown in the first column. Subsequently, 10 days to 2 weeks prior to the introduction of resibufogenin, the blood pressure was measured. This appears in the second column. In the third column, the blood pressure was measured 10 days after administration of resibufogenin. The rats in Groups I and III weighed about 200 to 250 gm with resibufogenin being administered in the amount of about 1.53 micrograms per 100 grams of body weight. […] It is also noted that in the Group II control, that there was no meaningful pattern of reduction in blood pressure.
A dosage of approximately 1.53 micrograms […] with the rats weighing in the range of about 200-250 g was employed daily in order to determine the effectiveness of resibufogenin in the treatment of volume expansion mediated hypertension. The dosage was administered intraperitonially and the rats monitored after about three to four days of treatment. […]
The dosage was administered intraperitonially and the rats monitored after about three to four days of treatment. […]

As to `C[C@]12CC[C@H](O)C[C@H]1CC[C@@H]1[C@@H]2CC[C@]2(C)[C@@H](c3ccc(=O)oc3)C[C@H]3O[C@]132` [Resibufogenin, resibufogenin], the “Blood pressure response to resibufogenin (in words)” value in experiment [1] is “neither animal responded to resibufogenin”. Moreover, the “Biological activity as an antiangionesis agent” value in experiment [2] was “not to be biologically active”. In addition, the “Reduction in blood pressure (in words)” value in experiment [3] (Group I, four rats, 10 days after administration of resibufogenin) is “very substantial reduction in blood pressure; also recorded: meaningful reduction in blood pressure”. Also, the “Blood Pressure After 10 days of Resibufogenin” value in experiment [3] (Group I, individual rats #1-#4, about 1.53 micrograms per 100 grams body weight daily, intraperitoneal, in DMSO, after 10 days) was 85 mmHg and 90 mmHg and 130 mmHg and 100 mmHg. Also, the “Reduction in blood pressure after treatment (in words)” value in experiment [3] (daily intraperitoneal dose, rats monitored after about three to four days of treatment) is listed as “all of the rats experienced a substantial reduction in blood pressure”.

Source of the values: patent publication US20070014722A1, “Method of treating human volume expansion mediated hypertension employing resibufogenin” (The Administrators of the Tulane Educational Fund, priority 2005, published 2007).
